What follows are molecules tested on SARS-CoV-2 (assay: CPE inhibition assay, anti-SARS-CoV-2 virus activity in vitro (Test Example 4)). Details: CPE inhibition at 10 µM; VeroE6-TMPRSS2 cells; MOI 0.01; third day post infection; average of three tests.
Assay type: cell-based

Molecule	Anti SARS-CoV-2 activity
(6 R,9 S,11aR,11bR)-1,3-Dibenzyl-N-(bicyclo[1,1,1]penta n-1-yl) 11b-Hydroxy-6-isopropyl-2,4,7-trioxodecahydro- 2H-pyrrolo [2",1":3,4]pyrazino[ 1,2-a][1,3,5] triazine-9-carboxamide [Compound 3I]	A (a CPE inhibition effect of 5% or more)
(6R,9S,10aR)-1,3,6-tribenzyl-10b-hydroxy-N-(naphthalen-2-ylmethyl)-2,4,7-trioxodecahydroazeto[2',1 ':3,4]pyrazino[1.2-a][1,3,5]triazine-9-carboxamide [Compound 20D]	A (a CPE inhibition effect of 5% or more)
(6R,9S,11aR)-11b-Hydroxy-6-isopropyl-N-(naphthalen-2-ylmethyl)-2,4,7-trioxo-1,3-bis(thien-2-ylmethyl)decahydro- 2H-pyrrolo[2',1':3,4] pyridazine[1,2-a][1,3,5] triazine-9-carboxamide [Compound 27D]	A (a CPE inhibition effect of 5% or more)
(6R,9S,11aR,11bR)-1,3-Dibenzyl-9-(4-fluoroisoindolin-2-carbonyl)-11b-hydroxy-6-isopropylhexahydro -2H-pyrrolo[2',1':3,4]pyri dazino[1,2-a][1,3,5] triazine-2.4. 7(3H.6H)-trione [Compound 3J]	A (a CPE inhibition effect of 5% or more)
(6R,9S,11aR,11bR)-1,3-Dibenzyl-11b-hydroxy-6-(4 -methoxybenzyl)-N-(naphthalen-2-ylmethyl)-2,4,7-trioxodecahydro-2H-pyrrolo[2',1':3,4] pyridazino[1,2-a][1.3.5] triazine-9-carboxamide [Compound 6D]	B (a CPE inhibition effect of less than 5% but 1% or more)
(6R,9S,11aR,11bR)-1,3-Dibenzyl-11b-hydroxy-6-isopropyl-2,4,7-trioxo-phenyl-deca-hydro-2H-pyrrolo [2',1':3,4]pyrazino[1, 2-a][1,3,5]triazine-9-carboxamide [Compound 3G]	A (a CPE inhibition effect of 5% or more)
(6R,9S,11aR,11bR)-1,3-Dibenzyl-11b-hydroxy-6-isopropyl-N-(naphthalen-2-ylmethyl)-2,4,7-trioxodecahydro-2H-pyrrolo[ 2',1':3,4]pyrazino[1,2-a] [1,3,5]triazine^-9^-carbamide [Compound 3D]	A (a CPE inhibition effect of 5% or more)
(6R,9S,11aR,11bR)-1,3-Dibenzyl-11b-hydroxy-N,6-bis(naphthalen-2-ylmethyl)-2.4.7-trioxodecahydro-2H-pyrrolo[2'.1':3,4] pyrazino[1,2-a][1,3,5] triazine-9-carboxamide [Compound 7D]	B (a CPE inhibition effect of less than 5% but 1% or more)
(6R,9S,11aR,11bR)-1,3-bis(furan-2-ylmethyl)-11b-hydroxy-6-isopropyl-N-(naphthalen-2-ylmethyl)-2,4,7-trioxodecahydro-2H-pyrrolo[2',1':3,4]pyridazin e[1,2-a] [1,3,5]triazine-9-carboxamide [Compound 28D]	A (a CPE inhibition effect of 5% or more)
(6R,9S,11aR,11bR)-6-benzyl-11b-hydroxy-N-(naphthalen-2-ylmethyl)-2 ,4,7-trioxo-1,3-bis (thien-2-ylmethyl) decahydro-2H-pyrrolo [2',1':3,4]pyridazino[1,2-a] [1.3,5]triazine-9-carboxamide [Compound 18D]	C (less than 1%)
(6R,10R,11aR)-1.3,6-tribenzyl-10-(benzyl oxy)-11b-hydroxyhexahydro-2H-pyrrolo [2',1':3,4]pyrazino[1,2-a][1.3,5] triazine-2,4,7(3H.6H)-trione [Compound 15A]	C (less than 1%)
(6R,10R.11aS)-1,3.6-tribenzyl-10-(benzyl oxy)-11b-hydroxyhexahydro-2H-pyrrolo [2',1':3,4]pyridazino[1,2-a][1,3,5 triazine-2,4,7(3H.6H)-trione [Compound 14A]	B (a CPE inhibition effect of less than 5% but 1% or more)
(6R.9S)-1.3-benzyl-6-(4-fluorobenzyl)-N-(naphthalen-2-ylmethyl)-2, 4,7-trioxo-1,3,4,6,7,9,10,11-octahydro-2H-pyrrolo [2',1':3,4]pyridazine [1,2-a][1,3,5]triazine-9-carboxamide [Compound 5E]	C (less than 1%)
(6R.9S.11aR.11bR)-1,3-Dibenzyl-6-(4-fluorobenzyl)-11b-hydroxy-N-(naphthalen-2-yl methyl)-2,4,7-trioxodecahydro-2H-pyrrolo[2',1':3,4]pyridazine [1,2-a][1,3,5]triazine-9-carboxamide [Compound 5D]	A (a CPE inhibition effect of 5% or more)
(6R.11aR)-1,3,6-tribenzyl-11b-hydroxy-11a-methylhexahydro-2H-pyrrolo[2',1':3,4] pyrazino[1,2-a][1,3,5] triazine-2,4,7(3H,6H)-trione [Compound 19A]	A (a CPE inhibition effect of 5% or more)
(6S,9R,11aS,11bS)-1,3,6-Tri benzyl-11b-hydroxy-2,4,7-tri oxodecahydro-2H-pyrrolo [2',1':3,4]pyridazine[1,2-a] [1,3,5]triazine-9-carboxylic acid [Compound 4C]	C (less than 1%)
(6S,9R,11aS,11bS)-1,3,6-Tribenzyl-11b-hydroxy-N-(naphthalen-2-ylmethyl)-2,4 ,7-trioxo-2H-pyrrolo [2',1':3,4]pyrazino [1,2-a][1,3,5]triazine-9-carboxamide [Compound 4D]	A (a CPE inhibition effect of 5% or more)
(6S,9R,11aS,11bS)-1,3-Dibenzyl-11b-hydroxy-6-isopropyl-N-(naphthalen-2^-ylmethyl)-2,4,7-trioxodecahydro-2H-pyrrolo[2',1':3,4]pyrazino[ 1,2-a][1,3,5]triazine-9-carboxamide [Compound 26D]	A (a CPE inhibition effect of 5% or more)
(6S,11a8)-1,3,6-tribenzyl-11b-hydroxy-11a-methylhexahydro-2H-pyrrolo[2',1':3,4]pyrazino [1,2-a][1,3,5]triazine-2,4,7(3H,6 H)-trione [Compound 12A]	B (a CPE inhibition effect of less than 5% but 1% or more)
(6S,13aS)-1,3,6-tribenzyl-13b-hydroxy-1,13,13a,13b-tetrahydro-2H-[1,3,5] triazino[2',1':3,4]pyraz ino[1,2-a]indole-2,4.7(3H,6H)-trione [Compound 24A]	C (less than 1%)

Same assay, conditions: Severe acute respiratory syndrome coronavirus 2, VeroE6/TMPRSS2, 72 h, read-out: Anti SARS-CoV-2 activity

Molecule	inhibition at 10 µM
O=C(NCc1ccc2ccccc2c1)[C@@H]1CC[C@H]2N1C(=O)C1(Cc3ccccc3C1)N1C(=O)N(Cc3ccccc3)C(=O)N(Cc3ccccc3)C21O (stereo partly drawn) [Compound 21D, (9'S,11a'R)-1',3'-Dibenzyl-11b'-Hydroxy-N-(naphthalen-2-ylmethyl)-2',4',7'-trioxo-1,1',3,3',4',9',10',11',11a',1 1b'-decahydro-2'H,7'H-spiro[indene-2,6'-pyrrolo[2',1':3,4]pyrazino[1,2-a][1,3,5]triazine]-9'-carboxamide]	1 to 5%
COC(=O)[C@@H]1CCC[C@H]2N1C(=O)[C@@H](Cc1ccccc1)N1C(=O)N(Cc3ccccc3)C(=O)N(Cc3ccccc3)C21O (stereo partly drawn) [Compound 25A, Methyl (6R,9S,12aR)-1,3,6-tribenzyl-12b-hydroxy-2,4,7-trioxododecahydropyri do[2',1':3,4]pyrazino[1,2-a][1,3,5]triazine-9-carboxylate]	> 5%
O=C(NCc1ccc2ccccc2c1)[C@H]1CCCC2=C3N(Cc4ccccc4)C(=O)N(Cc4ccccc4)C(=O)N3[C@H](Cc3ccccc3)C(=O)N21 [Compound 25E, (6R,9R)-1,3,6-Tribenzyl-N-(naphthalen-2-ylmethyl)-2,4,7-trioxo-1,2,3,4,6,7,9,10,11,12-decahydropyrido[2',1':3,4] pyrazino[1,2-a][1,3,5]triazine-9-carboxamide]	1 to 5%
CCOC(=O)[C@H]1CC[C@@H]2N1C(=O)[C@H](C(C)C)N1C(=O)N(Cc3ccccc3)C(=O)N(Cc3ccccc3)[C@@]21O [Compound 26A, Ethyl (6S,9R,11aS,11bS)-1,3-dibenzyl-11b-hydroxy-6-isopropyl-2,4,7-trioxodecahydro-2H-pyrrolo[2',1':3,4]pyrazi no[1,2-a][1,3,5] triazine-9-carboxylate]	> 5%
CCOC(=O)[C@@H]1CC[C@H]2N1C(=O)[C@@H](C(C)C)N1C(=O)N(Cc3ccco3)C(=O)N(Cc3ccco3)[C@]21O [Compound 28A, Ethyl (6R,9S,11aR,11bR)-1,3-bis(furan-2-ylmethyl)-11b-hydroxy-6-isopropyl-2,4,7-trioxodecahydro-2H-pyrrolo[2',1':3,4] pyrazino[1,2-a][1,3,5] triazine-9-carboxylate]	> 5%
CC(C)[C@@H]1C(=O)N2[C@H](C(=O)NCc3cnc4ccccc4c3)CC[C@@H]2[C@@]2(O)N(Cc3ccco3)C(=O)N(Cc3ccco3)C(=O)N12 [Compound 28F, (6R,9S,11aR,11bR)-1,3-bis(2-furylmethyl)-11b-hydroxy-6-isopropyl-2,4,7-trioxo-N-(3-quinolylmethyl)decahydro-2H-pyrrolo[2',1':3,4]pyrazino[1,2-a][1,3,5]triazine-9-carboxamide]	> 5%
CCOC(=O)[C@@H]1CC[C@H]2N1C(=O)[C@@H](CC)N1C(=O)N(Cc3ccccc3)C(=O)N(Cc3ccccc3)[C@]21O [Compound 29A, Ethyl (6R,9S,11aR,11bR)-1,3-dibenzyl-6-ethyl-11b-hydroxy-2,4,7-trioxodecahydro-2H-pyrrolo[2',1':3,4]pyrazi no[1,2-a][1,3,5] triazine-9-carboxylate]	> 5%
CC[C@@]1(C(C)C)C(=O)N2[C@H](C(=O)NCc3ccc4ccccc4c3)CC[C@@H]2[C@@]2(O)N(Cc3ccccc3)C(=O)N(Cc3ccccc3)C(=O)N21 [Compound 29D, (6R,9S,11aR,11bR)-1,3-Dibenzyl-6-ethyl-11b-hydroxy-6-isopropyl-N-(naphthalen-2-ylmethyl)-2,4,7-trioxodecahydro-2H-pyrrolo[2',1':3,4] pyrazino[1,2-a][1,3,5] triazine-9-carboxamide]	> 5%

From patent EP4707279A1, “SUBSTITUTED TRICYCLIC HETEROCYCLIC COMPOUND AS PHARMACEUTICAL FOR TREATMENT OR PREVENTION OF COVID-19” (priority 2023, dated 2024)
